Results taken from PubChem BioAssay (NCI).
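Growth conditions: 96-well plates. Treatment: test compound, 48 hours, 5 concentrations. Analysis: linear interpolation between bracketing concentrations; unreached endpoints set to highest concentration. TGI is the concentration that stops growth completely.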

Assays:
Assay in all cases: growth of human tumour cells (NCI), 48 h
[1] = system: 786-0 renal
[2] = system: A498 renal
[3] = system: A549 NSCLC
[4] = system: ACHN renal
[5] = system: BT-549 breast
[6] = system: CAKI-1 renal
[7] = system: CCRF-CEM leukemia
[8] = system: COLO 205 colon
[9] = system: DU-145 prostate
[10] = system: EKVX NSCLC
[11] = system: HCT-116 colon
[12] = system: HCT-15 colon
[13] = system: HL-60(TB) leukemia
[14] = system: HOP-62 NSCLC
[15] = system: HOP-92 NSCLC
[16] = system: HS 578T breast
[17] = system: HT29 colon
[18] = system: IGROV1 ovarian
[19] = system: K-562 leukemia
[20] = system: KM12 colon
[21] = system: LOX IMVI melanoma
[22] = system: M14 melanoma
[23] = system: MALME-3M melanoma
[24] = system: MCF7 breast
[25] = system: MDA-MB-231 breast
[26] = system: MDA-MB-435
[27] = system: MDA-N
[28] = system: MOLT-4 leukemia
[29] = system: NCI-H226 lung
[30] = system: NCI-H23 lung
[31] = system: NCI-H460 lung
[32] = system: NCI-H522 lung
[33] = system: NCI/ADR-RES ovarian
[34] = system: OVCAR-3 ovarian
[35] = system: OVCAR-4 ovarian
[36] = system: OVCAR-5 ovarian
[37] = system: OVCAR-8 ovarian
[38] = system: PC-3 prostate
[39] = system: RPMI-8226 leukemia
[40] = system: RXF 393 renal
[41] = system: SF-268 CNS
[42] = system: SF-295 CNS
[43] = system: SF-539 CNS
[44] = system: SK-MEL-2 melanoma
[45] = system: SK-MEL-28 melanoma
[46] = system: SK-MEL-5 melanoma
[47] = system: SK-OV-3 ovarian
[48] = system: SN12C renal
[49] = system: SNB-19 CNS
[50] = system: SNB-75 CNS
[51] = system: SR leukemia
[52] = system: SW-620 colon
[53] = system: T-47D breast
[54] = system: TK-10 renal
[55] = system: U251 CNS
[56] = system: UACC-257 melanoma
[57] = system: UACC-62 melanoma
[58] = system: HCC-2998 colon
[59] = system: UO-31 renal

Cc1ccc(CSC(N)=Nc2ccccc2)cc1C
TGI [1]: 44.7 µM
TGI [2]: 33.2 µM
TGI [3]: > 100 µM
TGI [4]: > 100 µM
TGI [5]: 50.8 µM
TGI [6]: 60.9 µM
TGI [7]: > 100 µM
TGI [8]: 41.5 µM
TGI [9]: 55.4 µM
TGI [10]: 75.8 µM
TGI [11]: 32.1 µM
TGI [12]: 60.1 µM
TGI [13]: 62.9 µM
TGI [14]: 49.1 µM
TGI [15]: 45.7 µM
TGI [16]: 49.1 µM
TGI [17]: 40.1 µM
TGI [18]: 57.5 µM
TGI [19]: 61.7 µM
TGI [20]: 39.7 µM
TGI [21]: 36.2 µM
TGI [22]: 41.2 µM
TGI [23]: 34.2 µM
TGI [24]: 37.9 µM
TGI [25]: 33.6 µM
TGI [26]: 30.7 µM
TGI [27]: 43.8 µM
TGI [28]: 75.4 µM
TGI [29]: 43 µM
TGI [30]: 57 µM
TGI [31]: 39 µM
TGI [32]: 35.4 µM
TGI [33]: 52.8 µM
TGI [34]: 44 µM
TGI [35]: 36.5 µM
TGI [36]: 56.4 µM
TGI [37]: 45.9 µM
TGI [38]: 60.5 µM
TGI [39]: 75.9 µM
TGI [40]: 33.4 µM
TGI [41]: 36.7 µM
TGI [42]: > 100 µM
TGI [43]: 53.1 µM
TGI [44]: 33.6 µM
TGI [45]: 45.1 µM
TGI [46]: 34.9 µM
TGI [47]: 54.7 µM
TGI [48]: 38.5 µM
TGI [49]: 65.9 µM
TGI [50]: 63.9 µM
TGI [51]: 55.8 µM
TGI [52]: > 100 µM
TGI [53]: 45 µM
TGI [54]: 86.7 µM
TGI [55]: 31.6 µM
TGI [56]: 36.9 µM
TGI [57]: 26.6 µM

CCCn1cnc2c(SCc3ccc(Cl)cc3)nc(N)nc21
TGI [1]: > 100 µM
TGI [2]: 49.1 µM
TGI [3]: > 100 µM
TGI [4]: 33.8 µM
TGI [5]: > 100 µM
TGI [6]: 82 µM
TGI [7]: > 100 µM
TGI [9]: > 100 µM
TGI [10]: 43.5 µM
TGI [58]: 52.5 µM
TGI [11]: 44.2 µM
TGI [12]: > 100 µM
TGI [13]: 48.7 µM
TGI [14]: 44.4 µM
TGI [15]: > 100 µM
TGI [16]: > 100 µM
TGI [17]: 43.5 µM
TGI [18]: > 100 µM
TGI [19]: 48.2 µM
TGI [20]: 58.9 µM
TGI [21]: 50.8 µM
TGI [22]: 81.5 µM
TGI [23]: 65.8 µM
TGI [24]: > 100 µM
TGI [25]: 60.1 µM
TGI [26]: 57.8 µM
TGI [27]: 55 µM
TGI [30]: > 100 µM
TGI [31]: 40.6 µM
TGI [32]: 36.9 µM
TGI [33]: 73.2 µM
TGI [34]: 41.3 µM
TGI [35]: > 100 µM
TGI [36]: > 100 µM
TGI [37]: > 100 µM
TGI [38]: 57.8 µM
TGI [39]: 40.2 µM
TGI [40]: > 100 µM
TGI [41]: > 100 µM
TGI [42]: 45.9 µM
TGI [44]: 41.3 µM
TGI [45]: 83.4 µM
TGI [46]: 33.4 µM
TGI [47]: > 100 µM
TGI [48]: 83.3 µM
TGI [49]: > 100 µM
TGI [50]: 88.7 µM
TGI [51]: 34.8 µM
TGI [52]: > 100 µM
TGI [53]: > 100 µM
TGI [54]: 55.1 µM
TGI [55]: 74.5 µM
TGI [56]: 41.8 µM
TGI [57]: 52.8 µM
TGI [59]: > 100 µM

NCCCNCCCCN1CCOC1=O
TGI [1]: > 100 µM
TGI [2]: > 100 µM
TGI [3]: > 100 µM
TGI [4]: > 100 µM
TGI [5]: > 100 µM
TGI [6]: > 100 µM
TGI [7]: > 100 µM
TGI [8]: > 100 µM
TGI [9]: > 100 µM
TGI [10]: > 100 µM
TGI [58]: > 100 µM
TGI [11]: > 100 µM
TGI [12]: > 100 µM
TGI [13]: > 100 µM
TGI [14]: > 100 µM
TGI [16]: > 100 µM
TGI [17]: > 100 µM
TGI [18]: > 100 µM
TGI [19]: > 100 µM
TGI [20]: > 100 µM
TGI [21]: > 100 µM
TGI [22]: > 100 µM
TGI [23]: > 100 µM
TGI [24]: > 100 µM
TGI [25]: > 100 µM
TGI [26]: > 100 µM
TGI [27]: > 100 µM
TGI [28]: > 100 µM
TGI [29]: > 100 µM
TGI [30]: > 100 µM
TGI [31]: > 100 µM
TGI [32]: > 100 µM
TGI [33]: > 100 µM
TGI [34]: > 100 µM
TGI [36]: > 100 µM
TGI [37]: > 100 µM
TGI [38]: > 100 µM
TGI [39]: > 100 µM
TGI [41]: > 100 µM
TGI [42]: > 100 µM
TGI [43]: > 100 µM
TGI [44]: > 100 µM
TGI [45]: > 100 µM
TGI [46]: > 100 µM
TGI [47]: > 100 µM
TGI [48]: > 100 µM
TGI [49]: > 100 µM
TGI [50]: > 100 µM
TGI [51]: > 100 µM
TGI [52]: > 100 µM
TGI [53]: > 100 µM
TGI [54]: > 100 µM
TGI [55]: > 100 µM
TGI [56]: > 100 µM
TGI [57]: > 100 µM
TGI [59]: > 100 µM

Cc1ccc(S(=O)(=O)C2=C(C(C)C)N=NC2(C)C)cc1
TGI [1]: > 100 µM
TGI [2]: > 100 µM
TGI [3]: > 100 µM
TGI [4]: > 100 µM
TGI [5]: > 100 µM
TGI [6]: > 100 µM
TGI [9]: > 100 µM
TGI [10]: > 100 µM
TGI [58]: > 100 µM
TGI [11]: > 100 µM
TGI [12]: > 100 µM
TGI [13]: > 100 µM
TGI [14]: > 100 µM
TGI [15]: 69.6 µM
TGI [16]: > 100 µM
TGI [17]: > 100 µM
TGI [18]: > 100 µM
TGI [19]: > 100 µM
TGI [20]: > 100 µM
TGI [21]: > 100 µM
TGI [22]: > 100 µM
TGI [24]: > 100 µM
TGI [25]: > 100 µM
TGI [26]: > 100 µM
TGI [27]: > 100 µM
TGI [28]: > 100 µM
TGI [29]: > 100 µM
TGI [30]: > 100 µM
TGI [31]: > 100 µM
TGI [32]: > 100 µM
TGI [33]: > 100 µM
TGI [34]: > 100 µM
TGI [35]: > 100 µM
TGI [36]: > 100 µM
TGI [37]: > 100 µM
TGI [38]: > 100 µM
TGI [39]: 53.8 µM
TGI [40]: > 100 µM
TGI [41]: > 100 µM
TGI [42]: > 100 µM
TGI [43]: > 100 µM
TGI [44]: > 100 µM
TGI [45]: > 100 µM
TGI [46]: > 100 µM
TGI [48]: > 100 µM
TGI [49]: > 100 µM
TGI [50]: > 100 µM
TGI [51]: > 100 µM
TGI [52]: > 100 µM
TGI [53]: > 100 µM
TGI [54]: > 100 µM
TGI [55]: > 100 µM
TGI [56]: > 100 µM
TGI [59]: > 100 µM
